{
  "source": "paper PMC5341405",
  "about": "“Lapachol, a compound targeting pyrimidine metabolism, ameliorates experimental autoimmune arthritis” (Arthritis Research & Therapy, 2017)",
  "key": {"murine CD4 T cells": {"test_system": "murine CD4 T cells", "assay": "Proliferation assay of murine CD4 T cells (dye dilution, flow cytometry)", "format": "cell-based, C57BL/6 mice", "description": "Human CD4 T cells were purified from the whole blood of healthy volunteers. Briefly, peripheral blood mononuclear cells (PBMCs) were isolated by Percoll gradient (Sigma-Aldrich, St. Louis, MO, USA). CD4 T cells were isolated from PBMCs using Isolation Kit (Miltenyi Biotec, Bergisch Gladbach, Germany). For murine CD4 T cells, lymph nodes from naive C57BL/6 male mice were harvested, and CD4 T cells were purified using Isolation Kit (Miltenyi Biotec, Bergisch Gladbach, Germany) according to the manufacturer’s recommendations.\nA total of 1 × 10^5 CD4 T cells were labeled with 1 μM Dye Efluor® 670 (eBioscience, San Diego, CA, USA) for 15 min at 37 °C and cultured in RPMI-1640 10% FBS for 4 days in a 96-well U-bottom plate (Falcon, Franklin Lakes, New Jersey, USA) with the LAP salt diluted in RPMI-1640 (10, 30, and 100 μM), LEF diluted in RPMI-1640 (10, 30, and 100 μM; Arava®, Sanofi, France) and/or uridine (30, 100, and 300 μM; Sigma-Aldrich, St. Louis, MO, USA) in the presence of anti-CD3 (3 μg/ml) and anti-CD28 (1.5 μg/ml). The proliferation of CD4 T cells was determined by dye dilution in flow cytometry analysis. The results were expressed as the percentage of suppression using the following formula: [proliferation of CD4 T cells only – (proliferation of T CD4 cells with LEF or LAP)/proliferation of CD4 T cells only] × 100."}, "[1]": {"assay": "Pharmacokinetics after i.v. administration", "format": "in vivo, Wistar rats", "conditions": "for Vd: read-out: Vdss", "method": "For administration to Wistar rats, LAP was dissolved in DMSO:Tween 80:glucose 5% in a proportion of 15:5:80 (v/v/v), resulting in a solution of 1 mg/ml (for intravenous (i.v.) administration) and another of 5 mg/ml (for oral administration). LAP was administered to rats as an i.v. bolus dose at 2 mg/kg (n = 7) and at two oral doses of 10 (n = 8) and 25 mg/kg (n = 6). LAP salt was administered as i.v. (2 mg/kg, n = 6) and oral doses (30 mg/kg equivalent to 27.5 mg/kg of LAP, n = 8). The i.v. doses were injected into the lateral tail vein, and oral doses were given by gavage. The doses were chosen based on previous toxicological and pharmacodynamic studies. At predetermined time points (30 min before dosing and at 0.08, 0.25, 0.5, 1, 2, 4, 6, 8, 12, and 24 h) after LAP i.v. administration, blood samples (200–250 μl) were withdrawn into heparinized tubes via puncture of the lateral tail vein, opposite to the vein used for drug dosing. The same procedure was carried out after oral administration of LAP, with blood sampling at 0.25, 0.5, 1, 1.5, 2, 3, 6, 12, 24, and 30 h. After LAP sodium salt i.v. and oral dosing, blood samples were harvested up to 10 and 12 h, respectively. Plasma was obtained by centrifugation of blood samples (6800 × g, at 4 °C for 10 min) and stored at –80 °C until analysis by UPLC-MS/MS.\nLAP and LAP sodium salt pharmacokinetic parameters after i.v. and oral administration were determined from individual plasma profiles by a noncompartmental approach (NCA). The peak plasma concentration (Cmax) and the time of maximum concentration (Tmax) were obtained by visual inspection of the data from the plasma concentration–time curve after oral dosing. Pharmacokinetic parameters such an elimination rate constant (λ), area under the curve (AUC0–∞), clearance (CLtot), half-life (t1/2), volume of distribution (Vdss), mean residence time (MRT), and bioavailability (Fabs) were determined using classical equations. The compartmental analyses were performed using SCIENTIST v.2.0.1 software (MicroMath®, USA). One- and two-compartment models with or without weighting schemes were evaluated. The best model to fit the data was chosen based on the random distribution of residuals, the correlation coefficient, and the model selection criterion (MSC) given by the software.\nThe individual plasma profiles of LAP and LAP sodium salt after i.v. administration were best described by a two-compartmental open model. Plasma profiles after oral administration with two different doses of LAP and one dose of LAP sodium salt were best described by the one-compartmental model.\nLAP concentration in plasma samples was determined by a validated (FDA, US Food and Drug Administration, 2001) UPLC-MS/MS method. Analyses were run on an Acquity UPLC BEH (Waters Acquity™) C18 column (2.1 × 50 mm, 1.7 μm particle size), with a flow of 300 μl/min at 35 °C. A gradient constituted of water (A) and acetonitrile (B) acidified with 0.1% acetic acid was used as follows: 0 min (90% A), 1 min (75% A), 7 min (50% A), 8.5 min (0% A) and 9.5 min (100% A). For the triple quadrupole, MS parameters were set as follows: capillary voltage (2.20 kV); extractor (3.0 V) source temperature (150 °C), desolvation temperature (300 °C), cone gas flow (50 l/h), and desolvation gas flow (700 l/h). For quantification, a multiple reaction monitoring method (MRM) was applied. For LAP, the transition of m/z 243 > 187 using cone energy of 24 V and collision energy of 19 V was determined as most appropriate for quantification (Calibration curves between 1 and 20,000 ng/ml of LAP, R > 0.99, low quantification limit of 1 ng/ml, and detection limit of 0.1 ng/ml).\nA total of 200 μl cold acetonitrile containing internal standard (2-methyl-amino-lapachol) at 5 μg/ml and 0.05% trifluoroacetic acid was added to 100 μl of plasma and vortexed for 20 s. Precipitated protein was removed by centrifugation (6800 × g at 4 °C for 10 min). […]"}, "DHODH": {"test_system": "DHODH", "design": "method as in PMID 10658902", "conditions": "cited from earlier work"}, "[2]": {"conditions": "Wistar, rat, plasma, iv, 2 mg/kg, 2 mg/kg i.v., 2-Comp"}, "[3]": {"conditions": "Wistar, rat, plasma, iv, 2 mg/kg, 2 mg/kg i.v., NCA"}},
  "note": "Read-outs that look alike come from different tables or passages of the source.",
  "data": [
    {"compound": "CC(C)=CCC1=C(O)C(=O)c2ccccc2C1=O", "note": "[LAP, 2-hydroxy-3-(3methyl-2-butenyl)-1,4-naphthoquinone]", "values": [
      {"measurement": "effect on proliferation of murine CD4 T cells", "setting": "murine CD4 T cells; 10, 30, and 100 μM, 4 days, anti-CD3/CD28", "value": "inhibited the proliferation of murine CD4 T cells in a dose-dependent manner"},
      {"measurement": "suppression of proliferation compared with LEF", "setting": "murine CD4 T cells; murine CD4 T cells, same equivalent concentrations", "value": "greater ability to suppress the proliferation"},
      {"measurement": "CLtot", "setting": "[1]; 2 mg/kg i.v., 2-Comp", "value": "0.667 ± 0.167", "unit": "mL/min/kg"},
      {"measurement": "Vc", "setting": "[1]; 2 mg/kg i.v., 2-Comp", "value": "0.11 ± 0.03", "unit": "L/kg"},
      {"measurement": "a", "setting": "[1]; 2 mg/kg i.v., 2-Comp", "value": "10.0 ± 4.1", "unit": "µg/mL"},
      {"measurement": "b", "setting": "[1]; 2 mg/kg i.v., 2-Comp", "value": "8.8 ± 3.1", "unit": "µg/mL"},
      {"measurement": "t1/2ß", "setting": "[1]; 2 mg/kg i.v., 2-Comp", "value": "3.7 ± 0.5", "unit": "h"},
      {"measurement": "t1/2α", "setting": "[1]; 2 mg/kg i.v., 2-Comp", "value": "0.6 ± 0.4", "unit": "h"},
      {"measurement": "ß", "setting": "[1]; 2 mg/kg i.v., 2-Comp", "value": "0.19 ± 0.03", "unit": "h⁻¹"},
      {"measurement": "α", "setting": "[1]; 2 mg/kg i.v., 2-Comp", "value": "1.76 ± 1.52", "unit": "h⁻¹"},
      {"measurement": "CLtot", "setting": "[1]; 2 mg/kg i.v., NCA", "value": "0.667 ± 0.167", "unit": "mL/min/kg"},
      {"measurement": "λ", "setting": "[1]; 2 mg/kg i.v., NCA", "value": "0.18 ± 0.04", "unit": "h⁻¹"},
      {"measurement": "AUC(0-inf)", "setting": "[1]; [2]", "value": "56400 ± 21600", "unit": "ng·h/mL"},
      {"measurement": "Vd", "setting": "[1]; [2]", "value": "0.17 ± 0.03", "unit": "L/kg"},
      {"measurement": "AUC(0-inf)", "setting": "[1]; [3]", "value": "56100 ± 20100", "unit": "ng·h/mL"},
      {"measurement": "MRT", "setting": "[1]; [3]", "value": "5.3 ± 1.2", "unit": "h"},
      {"measurement": "Vd", "setting": "[1]; [3]", "value": "0.19 ± 0.03", "unit": "L/kg"},
      {"measurement": "half-life", "setting": "[1]; Wistar, rat, plasma, iv, 2 mg/kg, 2 mg/kg i.v., NCA, read-out: t1/2 (converted)", "value": "4.1 ± 1.1", "unit": "h"},
      {"measurement": "linearity of pharmacokinetics", "setting": "[1]; dose range investigated 2–25 mg/kg (i.v. and oral)", "value": "Linear pharmacokinetics"},
      {"measurement": "total clearance", "setting": "[1]; intravenous administration, rats", "value": "0.67 ± 0.17", "unit": "mL/min/kg"},
      {"measurement": "inhibition of DHODH activity", "setting": "DHODH", "value": "can inhibit DHODH activity"}
    ]}
  ]
}
